# Measurements taken from patent publication US20080312184A1 (priority 2005, published 2008).
# Read-outs that look alike come from different tables or passages of the source.
# System: late blight phenylamide-resistant strain (zoospore+zoosporangia)
# Assay type: in vivo, tomatoes (cultivar: sekai-ichi)
# Conditions: single active ingredient
# [1] = Table 3, treated concentration 10 ppm, examined after 5 days
# [2] = Table 3, treated concentration 5 ppm, examined after 5 days
compound,measurement,setting,value
"C[C@@]1(c2ccc(Oc3ccccc3)cc2)OC(=O)N(Nc2ccccc2)C1=O (racemic) [Famoxadone, famoxadone]",Control Value,"Table 3, treated concentration 20 ppm, examined after 5 days",62
"CC(C)CC(C)c1sccc1NC(=O)c1cn(C)nc1C(F)(F)F (racemic) [P (penthiopyrad), (RS)—N-[2-(1,3-dimethylbutyl)thiophen-3-yl]-1-methyl-3-tri fluoromethyl-1H-pyrazole-4-carboxamide]",Control Value,[1],20
same,Control Value,"Table 9 (Example B), treated concentration 10 ppm",20
"CC(C)OC(=O)N[C@H](C(=O)N[C@H](C)c1nc2ccc(F)cc2s1)C(C)C [Benthiavalicarb-isopropyl, benthiavalicarb-isopropyl]",Control Value,[2],70
"Cc1ccc(-c2c(Cl)nc(C#N)n2S(=O)(=O)N(C)C)cc1 [Cyazofamid, cyazofamid]",Control Value,[1],70
"CCNc1nc(CC)c(C(=O)NC(C#N)c2cccs2)s1 (centres unmarked) [Ethaboxam, ethaboxam]",Control Value,[1],62
"CSC1=N[C@@](C)(c2ccccc2)C(=O)N1Nc1ccccc1 [Fenamidone, fenamidone]",Control Value,[1],58
"Cc1ccc(C(C)NC(=O)[C@@H](NC(=O)OC(C)C)C(C)C)cc1 (some centres unmarked) [Iprovalicarb, iprovalicarb]",Control Value,[2],70
"COC(=O)N(OC)c1ccccc1COc1ccn(-c2ccc(Cl)cc2)n1 [Pyraclostrobin, pyraclostrobin]",Control Value,"Table 9 (Example B), treated concentration 5 ppm",62
"CCC(C)(NC(=O)c1cc(Cl)c(C)c(Cl)c1)C(=O)CCl (centres unmarked) [Zoxamide, zoxamide]",Control Value,[1],60
metiram,Control Value,"Table 3, treated concentration 50 ppm, examined after 5 days",56
